Test system: KRAS PDC tumor spheroids (HUVEC+MSC), viability
Assay: Anticancer human tumor 254851-301-R-J1-PDC patient-derived colon carcinoma cell line growth inhibition [KRAS2]
Details: for IC50: curve of first compound; for viability, T/C: stronger effect = lower value
Method in brief: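 Combination screen of spheroid viability in tumor-cell co-cultures with endothelial (HUVEC) and mesenchymal stem cell stroma. Each agent was tested in half-log dilutions, topping at clinical Cmax or at 10 microM without a known Cmax.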

[1] = second compound 0.0316 µM, first compound 0.0316 µM
[2] = second compound 0.0316 µM, first compound 0.1 µM
[3] = second compound 0.1 µM, first compound 0.0316 µM
[4] = second compound 0.1 µM, first compound 0.1 µM
[5] = second compound 0.316 µM, first compound 0.0316 µM
[6] = second compound 0.316 µM, first compound 0.1 µM
[7] = second compound 1 µM, first compound 0.0316 µM
[8] = second compound 1 µM, first compound 0.1 µM
[9] = second compound 3.16 µM, first compound 0.0316 µM
[10] = second compound 3.16 µM, first compound 0.1 µM
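Further: spheroids exposed to compounds for seven days before readout.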
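Wherever viability, T/C is given: 100% = DMSO vehicle control luminescence of the spheroids.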

CC(C)n1nc(-c2ccc3oc(N)nc3c2)c2c(N)ncnc21 + C=CC(=O)N1CCN(c2nc(OCC3CCCN3C)nc3c2CCN(c2cccc4cccc(C)c24)C3)CC1CC#N
IC50 (second compound 0.0316 µM): 15.3 nM | IC50 (second compound 0.1 µM): 23.2 nM | IC50 (second compound 0.316 µM): 15.3 nM | IC50 (second compound 1 µM): 14.1 nM | IC50 (second compound 3.16 µM): 2.27 nM | viability, T/C (second compound 0.0316 µM, first compound 0.000316 µM): 118% | viability, T/C (second compound 0.0316 µM, first compound 0.001 µM): 109% | viability, T/C (second compound 0.0316 µM, first compound 0.00316 µM): 87.6% | viability, T/C (second compound 0.0316 µM, first compound 0.01 µM): 63.1% | viability, T/C [1]: 30.1% | viability, T/C [2]: 21.1% | viability, T/C (second compound 0.1 µM, first compound 0.000316 µM): 113% | viability, T/C (second compound 0.1 µM, first compound 0.001 µM): 115% | viability, T/C (second compound 0.1 µM, first compound 0.00316 µM): 90.6% | viability, T/C (second compound 0.1 µM, first compound 0.01 µM): 68.1% | viability, T/C [3]: 45.2% | viability, T/C [4]: 22.3% | viability, T/C (second compound 0.316 µM, first compound 0.000316 µM): 111% | viability, T/C (second compound 0.316 µM, first compound 0.001 µM): 115% | viability, T/C (second compound 0.316 µM, first compound 0.00316 µM): 101% | viability, T/C (second compound 0.316 µM, first compound 0.01 µM): 61% | viability, T/C [5]: 31.6% | viability, T/C [6]: 23.6% | viability, T/C (second compound 1 µM, first compound 0.000316 µM): 108% | viability, T/C (second compound 1 µM, first compound 0.001 µM): 118% | viability, T/C (second compound 1 µM, first compound 0.00316 µM): 83% | viability, T/C (second compound 1 µM, first compound 0.01 µM): 58.8% | viability, T/C [7]: 34.6% | viability, T/C [8]: 23.1% | viability, T/C (second compound 3.16 µM, first compound 0.000316 µM): 86% | viability, T/C (second compound 3.16 µM, first compound 0.001 µM): 52.7% | viability, T/C (second compound 3.16 µM, first compound 0.00316 µM): 56.7% | viability, T/C (second compound 3.16 µM, first compound 0.01 µM): 23.9% | viability, T/C [9]: 29.2% | viability, T/C [10]: 12.6%

CC1(C)CCC(CN2CCN(c3ccc(C(=O)NS(=O)(=O)c4ccc(NCC5CCOCC5)c([N+](=O)[O-])c4)c(Oc4cnc5[nH]ccc5c4)c3)CC2)=C(c2ccc(Cl)cc2)C1 + C=CC(=O)N1CCN(c2nc(OCC3CCCN3C)nc3c2CCN(c2cccc4cccc(C)c24)C3)CC1CC#N
IC50 (second compound 0.0316 µM): > 10000 nM | IC50 (second compound 0.1 µM): > 10000 nM | IC50 (second compound 0.316 µM): > 10000 nM | IC50 (second compound 1 µM): 6390 nM | IC50 (second compound 3.16 µM): 371 nM | viability, T/C [1]: 95.8% | viability, T/C [2]: 101% | viability, T/C (second compound 0.0316 µM, first compound 0.316 µM): 97.3% | viability, T/C (second compound 0.0316 µM, first compound 1 µM): 98% | viability, T/C (second compound 0.0316 µM, first compound 3.16 µM): 95.6% | viability, T/C (second compound 0.0316 µM, first compound 10 µM): 90% | viability, T/C [3]: 98.5% | viability, T/C [4]: 106% | viability, T/C (second compound 0.1 µM, first compound 0.316 µM): 92.4% | viability, T/C (second compound 0.1 µM, first compound 1 µM): 100% | viability, T/C (second compound 0.1 µM, first compound 3.16 µM): 90.3% | viability, T/C (second compound 0.1 µM, first compound 10 µM): 86.1% | viability, T/C [5]: 106% | viability, T/C [6]: 107% | viability, T/C (second compound 0.316 µM, first compound 0.316 µM): 80.9% | viability, T/C (second compound 0.316 µM, first compound 1 µM): 85.3% | viability, T/C (second compound 0.316 µM, first compound 3.16 µM): 81% | viability, T/C (second compound 0.316 µM, first compound 10 µM): 73.8% | viability, T/C [7]: 88% | viability, T/C [8]: 106% | viability, T/C (second compound 1 µM, first compound 0.316 µM): 101% | viability, T/C (second compound 1 µM, first compound 1 µM): 81.4% | viability, T/C (second compound 1 µM, first compound 3.16 µM): 70.7% | viability, T/C (second compound 1 µM, first compound 10 µM): 37.8% | viability, T/C [9]: 57% | viability, T/C [10]: 56.2% | viability, T/C (second compound 3.16 µM, first compound 0.316 µM): 45% | viability, T/C (second compound 3.16 µM, first compound 1 µM): 36.4% | viability, T/C (second compound 3.16 µM, first compound 3.16 µM): 0.19% | viability, T/C (second compound 3.16 µM, first compound 10 µM): 0.19%

Source: PubChem BioAssay AID1963868 (Molecular Pharmacology Branch, DTP, NCI, 2024)
